# How the values were obtained:
# SPHK2 = SPHK2 (Homo sapiens, UniProt Q9NRA0); test: Lipid kinase panel (MRC PPU); format: biochemical; parameters: % activity remaining: dose or concentration left out as unconfirmed
# Protocol: (§1) room temperature with shaking for 30 minutes. The kinase concentration in the eluates was measured by qPCR.
# (§2) using ADP-GloTM assay at the MRC PPU International Centre for Kinase Profiling, University of Dundee.
# (§3) Conducted by MRC PPU International Centre
# (§4) Conducted by MRC PPU International Centre for […]
# SPHK1 = SPHK1 (Homo sapiens, UniProt Q9NYA1); test: Lipid kinase panel (MRC PPU); format: biochemical; parameters: % activity remaining: dose or concentration left out as unconfirmed
# Protocol: as §1, §2, §3, §4
# CHK alpha = CHK alpha (Homo sapiens, UniProt P35790); test: Lipid kinase panel (MRC PPU); format: biochemical; parameters: % activity remaining: dose or concentration left out as unconfirmed
# Chain of CHK alpha (P35790 whole entry): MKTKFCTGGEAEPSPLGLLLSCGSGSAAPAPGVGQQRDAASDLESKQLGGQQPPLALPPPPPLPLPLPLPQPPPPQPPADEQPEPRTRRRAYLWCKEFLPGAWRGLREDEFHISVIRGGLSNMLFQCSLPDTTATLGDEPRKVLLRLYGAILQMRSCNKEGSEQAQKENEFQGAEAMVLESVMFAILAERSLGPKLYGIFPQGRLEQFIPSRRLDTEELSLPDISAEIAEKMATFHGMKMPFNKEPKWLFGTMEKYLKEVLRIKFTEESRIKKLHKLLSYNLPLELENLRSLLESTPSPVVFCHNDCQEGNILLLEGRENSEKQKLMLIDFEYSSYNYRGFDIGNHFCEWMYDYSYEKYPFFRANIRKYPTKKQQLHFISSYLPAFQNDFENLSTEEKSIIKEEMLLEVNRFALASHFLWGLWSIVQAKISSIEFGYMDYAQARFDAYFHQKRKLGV
# Protocol: as §1, §2, §3, §4
# PI3K beta = PI3K beta (Homo sapiens, UniProt P42338); test: Lipid kinase panel (MRC PPU); format: biochemical; parameters: % activity remaining: dose or concentration left out as unconfirmed
# Chain of PI3K beta (P42338 whole entry, species assumed): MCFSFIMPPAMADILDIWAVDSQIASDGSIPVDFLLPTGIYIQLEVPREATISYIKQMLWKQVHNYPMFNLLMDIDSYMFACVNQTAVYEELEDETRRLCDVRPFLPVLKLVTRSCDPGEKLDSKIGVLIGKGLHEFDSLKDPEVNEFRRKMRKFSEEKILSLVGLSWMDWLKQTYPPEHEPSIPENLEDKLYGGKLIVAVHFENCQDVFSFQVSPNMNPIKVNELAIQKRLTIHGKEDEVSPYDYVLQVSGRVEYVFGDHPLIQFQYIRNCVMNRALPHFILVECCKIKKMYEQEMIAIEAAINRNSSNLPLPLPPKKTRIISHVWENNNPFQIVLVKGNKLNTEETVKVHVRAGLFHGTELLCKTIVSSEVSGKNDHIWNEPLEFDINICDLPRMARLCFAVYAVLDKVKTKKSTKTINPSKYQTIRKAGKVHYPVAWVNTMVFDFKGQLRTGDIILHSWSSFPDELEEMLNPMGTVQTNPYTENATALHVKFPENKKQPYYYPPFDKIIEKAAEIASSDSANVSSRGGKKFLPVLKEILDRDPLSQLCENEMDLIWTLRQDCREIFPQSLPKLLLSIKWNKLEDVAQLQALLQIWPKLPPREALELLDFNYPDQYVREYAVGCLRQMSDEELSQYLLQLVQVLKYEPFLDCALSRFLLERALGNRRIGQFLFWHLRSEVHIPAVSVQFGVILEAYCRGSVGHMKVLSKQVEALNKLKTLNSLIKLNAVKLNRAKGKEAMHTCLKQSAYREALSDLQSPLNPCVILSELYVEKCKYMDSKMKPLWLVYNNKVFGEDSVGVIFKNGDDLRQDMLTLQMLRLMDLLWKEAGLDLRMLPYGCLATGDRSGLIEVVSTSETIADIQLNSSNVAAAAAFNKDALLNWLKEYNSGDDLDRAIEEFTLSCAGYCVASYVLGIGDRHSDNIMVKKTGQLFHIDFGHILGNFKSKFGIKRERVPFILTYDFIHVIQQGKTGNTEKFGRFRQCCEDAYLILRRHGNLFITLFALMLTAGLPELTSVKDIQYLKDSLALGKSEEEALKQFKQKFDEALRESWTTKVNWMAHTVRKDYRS
# Chain of PI3K beta (P27986 whole entry partner, species assumed): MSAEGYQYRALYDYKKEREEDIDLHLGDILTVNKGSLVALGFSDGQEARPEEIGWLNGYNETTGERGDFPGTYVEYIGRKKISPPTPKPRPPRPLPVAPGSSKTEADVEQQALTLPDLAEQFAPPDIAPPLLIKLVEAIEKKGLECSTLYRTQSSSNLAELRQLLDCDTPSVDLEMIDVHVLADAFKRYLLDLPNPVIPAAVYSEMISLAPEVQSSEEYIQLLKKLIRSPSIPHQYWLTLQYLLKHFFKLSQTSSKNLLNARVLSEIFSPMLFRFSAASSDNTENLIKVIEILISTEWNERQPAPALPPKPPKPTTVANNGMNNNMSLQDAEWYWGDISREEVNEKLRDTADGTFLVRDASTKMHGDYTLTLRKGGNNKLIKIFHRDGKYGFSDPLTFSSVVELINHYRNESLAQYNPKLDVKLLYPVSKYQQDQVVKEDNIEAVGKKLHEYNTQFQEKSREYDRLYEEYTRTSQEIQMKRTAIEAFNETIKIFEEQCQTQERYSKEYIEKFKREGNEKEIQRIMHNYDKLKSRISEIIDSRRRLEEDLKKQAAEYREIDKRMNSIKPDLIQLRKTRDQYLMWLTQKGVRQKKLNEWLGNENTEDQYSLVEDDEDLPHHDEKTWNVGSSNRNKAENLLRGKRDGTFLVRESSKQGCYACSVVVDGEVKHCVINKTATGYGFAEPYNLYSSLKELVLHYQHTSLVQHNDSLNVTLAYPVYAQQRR
# Protocol: as §1, §2, §3, §4
# PI3K gamma = PI3K gamma (Homo sapiens, UniProt P48736); test: Lipid kinase panel (MRC PPU); format: biochemical; parameters: % activity remaining: dose or concentration left out as unconfirmed
# Protocol: as §1, §2, §3, §4
# DGK zeta = DGK zeta (Homo sapiens, UniProt Q13574); test: Lipid kinase panel (MRC PPU); format: biochemical; parameters: % activity remaining: dose or concentration left out as unconfirmed
# Chain of DGK zeta (Q13574 whole entry, species assumed): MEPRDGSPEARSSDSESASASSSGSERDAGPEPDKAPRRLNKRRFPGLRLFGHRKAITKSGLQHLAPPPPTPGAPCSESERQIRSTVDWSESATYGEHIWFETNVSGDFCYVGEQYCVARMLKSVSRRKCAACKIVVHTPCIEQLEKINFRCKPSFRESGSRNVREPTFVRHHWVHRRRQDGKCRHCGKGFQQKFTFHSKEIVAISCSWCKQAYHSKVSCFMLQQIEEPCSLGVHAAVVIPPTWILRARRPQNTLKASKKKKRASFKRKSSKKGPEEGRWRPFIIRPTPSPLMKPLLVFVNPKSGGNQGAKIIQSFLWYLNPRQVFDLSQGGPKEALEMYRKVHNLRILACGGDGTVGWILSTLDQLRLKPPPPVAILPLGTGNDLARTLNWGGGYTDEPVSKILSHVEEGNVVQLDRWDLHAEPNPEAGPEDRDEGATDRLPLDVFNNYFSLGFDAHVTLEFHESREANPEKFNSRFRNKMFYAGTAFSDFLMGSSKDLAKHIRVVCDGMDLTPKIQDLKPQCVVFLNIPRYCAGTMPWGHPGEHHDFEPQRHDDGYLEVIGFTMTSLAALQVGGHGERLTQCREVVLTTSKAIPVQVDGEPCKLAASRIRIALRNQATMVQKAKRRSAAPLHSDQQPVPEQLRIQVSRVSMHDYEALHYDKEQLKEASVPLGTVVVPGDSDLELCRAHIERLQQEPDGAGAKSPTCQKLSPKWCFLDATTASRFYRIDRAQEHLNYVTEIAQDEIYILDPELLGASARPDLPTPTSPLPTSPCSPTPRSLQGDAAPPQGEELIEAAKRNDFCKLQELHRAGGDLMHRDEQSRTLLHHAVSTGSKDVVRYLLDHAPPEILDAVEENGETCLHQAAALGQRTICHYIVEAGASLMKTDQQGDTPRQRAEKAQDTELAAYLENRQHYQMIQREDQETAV
# Protocol: as §1, §2, §3, §4
# PI3K alpha = PI3K alpha (Homo sapiens, UniProt P42336); test: Lipid kinase panel (MRC PPU); format: biochemical; parameters: % activity remaining: dose or concentration left out as unconfirmed
# Chain of PI3K alpha (P42336 whole entry, species assumed): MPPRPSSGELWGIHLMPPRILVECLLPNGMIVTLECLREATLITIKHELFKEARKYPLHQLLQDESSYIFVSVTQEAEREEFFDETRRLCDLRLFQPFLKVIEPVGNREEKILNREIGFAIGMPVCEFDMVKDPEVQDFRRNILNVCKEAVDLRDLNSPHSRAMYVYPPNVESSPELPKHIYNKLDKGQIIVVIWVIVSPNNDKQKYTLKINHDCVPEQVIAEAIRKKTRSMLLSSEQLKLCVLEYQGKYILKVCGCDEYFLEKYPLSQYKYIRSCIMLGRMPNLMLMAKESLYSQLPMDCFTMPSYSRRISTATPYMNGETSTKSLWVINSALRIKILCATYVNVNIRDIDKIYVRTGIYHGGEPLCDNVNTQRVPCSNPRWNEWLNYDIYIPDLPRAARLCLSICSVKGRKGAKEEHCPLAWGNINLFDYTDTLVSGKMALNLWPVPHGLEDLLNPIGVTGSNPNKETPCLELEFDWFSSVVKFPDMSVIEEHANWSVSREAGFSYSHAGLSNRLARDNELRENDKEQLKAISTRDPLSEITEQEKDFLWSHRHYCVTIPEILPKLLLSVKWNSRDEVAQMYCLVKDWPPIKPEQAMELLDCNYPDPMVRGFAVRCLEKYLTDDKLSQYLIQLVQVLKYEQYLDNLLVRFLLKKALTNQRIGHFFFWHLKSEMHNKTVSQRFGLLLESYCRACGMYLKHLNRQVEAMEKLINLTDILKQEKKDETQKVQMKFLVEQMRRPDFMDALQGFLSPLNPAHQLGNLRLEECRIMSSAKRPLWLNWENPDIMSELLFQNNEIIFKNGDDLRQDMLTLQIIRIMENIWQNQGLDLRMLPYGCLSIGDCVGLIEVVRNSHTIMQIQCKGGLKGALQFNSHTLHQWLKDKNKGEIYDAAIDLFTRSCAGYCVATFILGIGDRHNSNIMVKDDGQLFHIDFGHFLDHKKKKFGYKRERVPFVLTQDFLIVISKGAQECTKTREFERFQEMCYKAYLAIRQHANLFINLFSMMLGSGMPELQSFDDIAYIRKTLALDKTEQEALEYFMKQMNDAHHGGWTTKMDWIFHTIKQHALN
# Chain of PI3K alpha (P27986 whole entry partner, species assumed): as the sequence (P27986 whole entry partner, species assumed) above
# Protocol: as §1, §2, §3, §4
# PIK4CB = PIK4CB (Homo sapiens, UniProt Q9UBF8); test: Lipid kinase panel (MRC PPU); format: biochemical; parameters: % activity remaining: dose or concentration left out as unconfirmed
# Protocol: as §1, §2, §3, §4
# PI3Ka E545K + p85 = PI3Ka E545K + p85 (Homo sapiens, UniProt P42336, E545K); test: Lipid kinase panel (MRC PPU); format: biochemical; parameters: % activity remaining: dose or concentration left out as unconfirmed
# Chain of PI3Ka E545K + p85 (P42336 whole entry E545K): as the sequence (P42336 whole entry, species assumed) above, with E545K counted along it
# Chain of PI3Ka E545K + p85 (P27986 whole entry partner): as the sequence (P27986 whole entry partner, species assumed) above
# Protocol: as §1, §2, §3, §4
# CHK beta = CHK beta (Homo sapiens, UniProt Q9Y259); test: Lipid kinase panel (MRC PPU); format: biochemical; parameters: % activity remaining: dose or concentration left out as unconfirmed
# Protocol: as §1, §2, §3, §4
# PI4K2a = PI4K2a (Homo sapiens, UniProt Q9BTU6); test: Lipid kinase panel (MRC PPU); format: biochemical; parameters: % activity remaining: dose or concentration left out as unconfirmed
# Chain of PI4K2a (Q9BTU6 whole entry, species assumed): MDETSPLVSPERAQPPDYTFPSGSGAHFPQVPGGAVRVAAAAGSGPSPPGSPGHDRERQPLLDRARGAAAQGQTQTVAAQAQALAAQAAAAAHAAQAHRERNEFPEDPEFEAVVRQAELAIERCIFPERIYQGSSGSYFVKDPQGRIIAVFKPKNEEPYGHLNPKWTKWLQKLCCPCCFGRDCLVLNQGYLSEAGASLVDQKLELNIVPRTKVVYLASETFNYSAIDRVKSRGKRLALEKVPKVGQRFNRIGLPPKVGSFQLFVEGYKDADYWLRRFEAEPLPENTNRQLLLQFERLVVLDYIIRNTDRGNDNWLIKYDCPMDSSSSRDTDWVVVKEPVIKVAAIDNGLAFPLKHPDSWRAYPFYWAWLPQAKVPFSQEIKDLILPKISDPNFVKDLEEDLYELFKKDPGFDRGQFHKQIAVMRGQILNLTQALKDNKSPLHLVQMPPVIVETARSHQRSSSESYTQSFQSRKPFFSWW
# Protocol: as §1, §2, §3, §4
# DGK beta = DGK beta (Homo sapiens, UniProt Q9Y6T7); test: Lipid kinase panel (MRC PPU); format: biochemical; parameters: % activity remaining: dose or concentration left out as unconfirmed
# Protocol: as §1, §2, §3, §4
# DGK gamma = DGK gamma (Homo sapiens, UniProt P49619); test: Lipid kinase panel (MRC PPU); format: biochemical; parameters: % activity remaining: dose or concentration left out as unconfirmed
# Protocol: as §1, §2, §3, §4
# PIP5K2A (PI5P4Kα) = PIP5K2A (PI5P4Kα) (Homo sapiens, UniProt P48426); test: Lipid kinase panel (MRC PPU); format: biochemical; conditions: read-out: residual activity (%)
# [1] = Mouse microsomal stability; format: in vitro ADME; conditions: mouse liver microsomes; read-out: MLM t1/2
# Protocol: (§5) ADMET experimental methods […]
# Mouse Microsomal stability: analysis was performed by Cyprotex Discovery. Briefly, test compounds in DMSO were incubated at a concentration of 1 µM (0.25% DMSO final) with mouse hepatic microsomes (0.5 mg protein/mL) in the presence of NADPH (1 mM) at 37 °C. Aliquots were taken at time intervals (0, 5, 15, 30 and 45 min) and stopped by transferring into acetonitrile, then analysed using generic LC-MS/MS conditions for compound remaining, allowing the determination of the half-life for the compound.
# PI3Ka E524K + p85 = conditions: 1 μM
# Protocol: as §1, §2, §3, §4
# PHK = PHK (Entrez PHK); 1 μM
# Protocol: as §1, §2, §3, §4
# [2] = Turbidimetric aqueous solubility; format: physicochemical; conditions: PBS buffer; pH 7.4 in aqueous buffer
# Protocol: as §5
# Turbidimetric aqueous solubility: analysis was performed by Cyprotex Discovery. Compound in DMSO at 10 mM was serially diluted to solutions of 0.1, 0.3, 1 and 3 mM in DMSO, then further diluted 1 in 100 in buffer (0.01 M PBS, pH 7.4, 1% DMSO final). 7 replicate wells of each dilution were equilibrated for 2 hours at 37 °C before absorbance is measured at 620 nm. The solubility is estimated from the concentration of test compound that produces an increase in absorbance above vehicle control (1% DMSO in buffer). […]
# [3] = 1 μM, read-out: residual activity (%)
smiles,measurement,setting,value
"CC1(C)CN(c2ncc(C(=O)Nc3cccc(C(F)(F)F)c3)c(N)n2)C(=O)N1 [compound 7, Imanixil]",% activity remaining,SPHK2; ADP-Glo,99%
same,% activity remaining,SPHK1; ADP-Glo,98%
same,% activity remaining,"CHK alpha; CHK a, ADP-Glo",101%
same,% activity remaining,"PI3K beta; PI3K b, ADP-Glo",109%
same,% activity remaining,"PI3K gamma; PI3K g, ADP-Glo",79%
same,% activity remaining,"DGK zeta; DGK z, ADP-Glo",101%
same,% activity remaining,"PI3K alpha; PI3K a, ADP-Glo",106%
same,% activity remaining,"PIK4CB; PIK4CB, ADP-Glo",94%
same,% activity remaining,PI3Ka E545K + p85; ADP-Glo,107%
same,% activity remaining,"CHK beta; CHK b, ADP-Glo",99%
same,% activity remaining,PI4K2a; ADP-Glo,100%
same,% activity remaining,"DGK beta; DGK b, ADP-Glo",97%
same,% activity remaining,"DGK gamma; DGK g, ADP-Glo",100%
COc1ccc(Nc2ncnc3c2ccn3-c2ccc(C)c(C)c2)cc1Cl [compound 36],remaining activity at 1 µM,PIP5K2A (PI5P4Kα),15.6%
same,half-life at 1 µM,[1],11 min
same,residual activity (%),PI3Ka E524K + p85,101.5%
same,residual activity (%),PHK,94%
same,remaining activity at 1 µM,SPHK2; [3],81.7%
same,remaining activity at 1 µM,SPHK1; [3],92.9%
same,remaining activity at 1 µM,"CHK alpha; CHK alpha, 1 μM, read-out: residual activity (%)",87.8%
same,remaining activity at 1 µM,"PI3K beta; PI3K beta, 1 μM, read-out: residual activity (%)",83.1%
same,remaining activity at 1 µM,PI3K gamma; read-out: residual activity (%),100%
same,remaining activity at 1 µM,"DGK zeta; DGK zeta, 1 μM, read-out: residual activity (%)",100%
same,remaining activity at 1 µM,"PI3K alpha; PI3K alpha, 1 μM, read-out: residual activity (%)",83.8%
same,remaining activity at 1 µM,"PIK4CB; PIK4Cb, 1 μM, read-out: residual activity (%)",101%
same,remaining activity at 1 µM,PI3Ka E545K + p85; [3],97.6%
same,remaining activity at 1 µM,"CHK beta; CHK beta, 1 μM, read-out: residual activity (%)",93.4%
same,remaining activity at 1 µM,PI4K2a; [3],95.7%
same,remaining activity at 1 µM,"DGK beta; DGK beta, 1 μM, read-out: residual activity (%)",100%
same,remaining activity at 1 µM,"DGK gamma; DGK gamma, 1 μM, read-out: residual activity (%)",106%
same,solubility at 2 h,[2],3 µM

# Source: paper PMC10211317, “Identification of ARUK2002821 as an isoform-selective PI5P4Kα inhibitor” (RSC Medicinal Chemistry, 2023)
